# Measured values from US7855292B2, “Sulfonamide compounds” (Janssen Pharmaceutica NV, priority 2004, dated 2010).
# Tests used:
# CCK-1 receptor = target: T1, CCK-1 receptor (Homo sapiens, UniProt P32238); experiment: CCK1 binding assay ([125I]-BH-CCK-8S displacement, CHO-K1 membranes); conditions: membranes of CHO-K1 cells stably transfected with the CCK-1 receptor, 20 pM [125I]-BH-CCK-8S, 0.3 μM PD-134,308 present, 60 min at 21±3° C.; for Ki: read-out: CCK1 pKi (converted)
# T1 construct: expressed in transfected cells; host or cells: CHO-K1
# T1 sequence (P32238 1-428): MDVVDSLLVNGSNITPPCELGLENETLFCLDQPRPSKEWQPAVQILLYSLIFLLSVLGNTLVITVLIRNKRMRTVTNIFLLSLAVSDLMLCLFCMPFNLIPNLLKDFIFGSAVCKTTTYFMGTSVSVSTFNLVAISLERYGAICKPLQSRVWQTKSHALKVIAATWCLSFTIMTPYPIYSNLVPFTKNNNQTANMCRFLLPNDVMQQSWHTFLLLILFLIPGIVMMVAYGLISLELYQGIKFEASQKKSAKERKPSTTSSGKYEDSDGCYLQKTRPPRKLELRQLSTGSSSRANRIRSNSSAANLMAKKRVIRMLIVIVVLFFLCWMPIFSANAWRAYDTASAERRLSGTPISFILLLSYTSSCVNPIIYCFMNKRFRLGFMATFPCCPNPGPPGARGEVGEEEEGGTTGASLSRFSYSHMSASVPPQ
# Outline: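 Membranes from CHO-K1 cells stably expressing CCK-1 incubated 1 h at 21±3° C with 20 pM [125I]-BH-CCK-8S in HEPES buffer pH 7.2 containing 0.3 μM PD-134,308 to block CCK-2. Bound radioactivity read by gamma counting after filtration. pKi derived via Cheng-Prusoff, with specific binding defined using 2-NAP.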
# CCK2 receptor = target: T2, CCK2 receptor (Homo sapiens, UniProt P32239); experiment: CCK2 binding assay ([125I]-BH-CCK-8S displacement, HEKZFP membranes); conditions: membranes of doxycycline-induced HEKZFP cells, 20 pM [125I]-BH-CCK-8S, 60 min at 21±3° C.; for Ki: read-out: CCK2 pKi (converted)
# T2 construct: analyzed for ZFP expression as well as CCK2R induction upon addition of doxycycline to the culture medium; endogenous in cells
# T2 sequence (P32239 1-447): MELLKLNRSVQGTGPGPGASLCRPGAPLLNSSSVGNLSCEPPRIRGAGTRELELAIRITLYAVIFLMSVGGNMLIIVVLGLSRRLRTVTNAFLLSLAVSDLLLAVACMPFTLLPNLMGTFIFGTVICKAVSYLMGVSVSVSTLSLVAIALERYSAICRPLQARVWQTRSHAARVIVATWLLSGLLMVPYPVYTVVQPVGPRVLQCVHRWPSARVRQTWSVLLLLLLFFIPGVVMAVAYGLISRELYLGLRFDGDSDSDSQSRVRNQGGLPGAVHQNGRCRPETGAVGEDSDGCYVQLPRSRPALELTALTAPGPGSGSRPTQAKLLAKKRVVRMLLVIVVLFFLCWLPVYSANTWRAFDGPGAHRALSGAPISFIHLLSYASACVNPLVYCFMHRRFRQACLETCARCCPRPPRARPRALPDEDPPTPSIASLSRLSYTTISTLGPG
SMILES,Ki (CCK-1 receptor),Ki (CCK2 receptor),CCK1 pKi (CCK-1 receptor),CCK2 pKi (CCK2 receptor)
"O=C(N[C@H](Cc1ccc(Cl)c(Cl)c1)C(=O)O)c1ccc(I)cc1NS(=O)(=O)c1cccc2nccnc12 [Example 60, (R)-3-(3,4-Dichloro-phenyl)-2-[4-iodo-2-(quinoxaline-5-sulfonylamino)-benzoylamino]-propionic acid]",79.4 nM,398 nM,,
"C[C@@H](CNC(=O)c1ccc(Br)cc1NS(=O)(=O)c1c(F)cccc1F)c1ccccc1 [Example 38, (R)-4-Bromo-2-(2,6-difluoro-benzenesulfonylamino)-N-(2-phenyl-propyl)-benzamide]",316 nM,2000 nM,,
"COC(=O)[C@H](Cc1csc2ccccc12)NC(=O)c1ccc(Cl)cc1NS(=O)(=O)c1cccc2nccnc12 [Example 65, (S)-3-Benzo[b]thiophen-3-yl-2-[4-chloro-2-(quinoxaline-5-sulfonylamino)-benzoylamino]-propionic acid methyl ester]",316 nM,794 nM,,
"C[C@H](CNC(=O)c1ccc(Br)cc1NS(=O)(=O)c1cccc2nsnc12)c1ccccc1 [Example 35, (S)-2-(Benzo[1,2,5]thiadiazole-4-sulfonylamino)-4-bromo-N-(2-phenyl-propyl)-benzamide]",,,7.2,6.3
"O=C(N[C@@H](Cc1ccc(Cl)c(Cl)c1)C(=O)O)c1ccc(I)cc1NS(=O)(=O)c1c(F)cccc1F [Example 32, 3-(3,4-Dichloro-phenyl)-2-[2-(2,6-difluoro-benzenesulfonylamino)-4-iodo-benzoylamino]-propionic acid]",398 nM,100 nM,,

# Next, values leading:
Ki (CCK-1 receptor),Ki (CCK2 receptor),CCK1 pKi (CCK-1 receptor),CCK2 pKi (CCK2 receptor),SMILES
158 nM,631 nM,,,"COC(=O)[C@H](Cc1ccc(Cl)c(Br)c1)NC(=O)c1ccc(Br)cc1NS(=O)(=O)c1cccc2nsnc12 [Example 142, (S)-2-[2-(Benzo[1,2,5]thiadiazole-4-sulfonylamino)-4-bromo-benzoylamino]-3-(3-bromo-4-chloro-phenyl)-propionic acid methyl ester]"
63.1 nM,7940 nM,,,"COC(=O)[C@@H](Cc1ccc(Cl)cc1)NC(=O)c1ccc(Cl)cc1NS(=O)(=O)c1ccc(F)cc1F [Example 69, (R)-2-[4-Chloro-2-(2,4-difluoro-benzenesulfonylamino)-benzoylamino]-3-(4-chloro-phenyl)-propionic acid methyl ester]"
200 nM,6310 nM,,,"O=C(NCCc1ccc(Cl)cc1Cl)c1ccc(Cl)cc1NS(=O)(=O)c1cccc2nsnc12 [Example 70, 2-(Benzo[1,2,5]thiadiazole-4-sulfonylamino)-4-chloro-N-[2-(2,4-dichloro-phenyl)-ethyl]-benzamide]"
6310 nM,631 nM,,,"COC(=O)C[C@H](Cc1ccc(Cl)cc1)NC(=O)c1ccc(Cl)cc1NS(=O)(=O)c1cccc2nccnc12 [Example 88, (S)-4-(4-Chloro-phenyl)-3-[4-chloro-2-(quinoxaline-5-sulfonylamino)-benzoylamino]-butyric acid methyl ester]"
501 nM,50.1 nM,,,"O=C(O)/C(=C/c1ccc(Cl)c(Cl)c1)NC(=O)c1cc(Cl)c(Cl)cc1NS(=O)(=O)c1cccc2nsnc12 [Example 144, (Z)-2-[2-(Benzo[1,2,5]thiadiazole-4-sulfonylamino)-4,5-dichloro-benzoylamino]-3-(3,4-dichloro-phenyl)-acrylic acid]"
316 nM,7940 nM,,,"C[C@H](NC(=O)c1ccc(Cl)cc1NS(=O)(=O)c1cccc2nsnc12)C(O)(c1ccccc1)c1ccccc1 [Example 74, (S)-2-(Benzo[1,2,5]thiadiazole-4-sulfonylamino)-4-chloro-N-(2-hydroxy-1-methyl-2,2-diphenyl-ethyl)-benzamide]"
501 nM,20 nM,,,"O=C(N[C@@H](Cc1cc(F)c(Cl)cc1Cl)C(=O)O)c1ccc(I)cc1NS(=O)(=O)c1cccc2nsnc12 [Example 134, (S)-2-[2-(Benzo[1,2,5]thiadiazole-4-sulfonylamino)-4-iodo-benzoylamino]-3-(2,4-dichloro-5-fluoro-phenyl)-propionic acid]"
